Key:
MAGL = MAGL (Mus musculus (Mouse), UniProt O35678); test: In vitro competitive activity-based protein profiling, MAGL (mouse); format: biochemical; conditions: 1 μM, read-out: MAGL % inh. 1 μM (mouse)
Outline: (§1)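 Residual MAGL and FAAH activity quantified from fluorescent gel bands after SDS-PAGE. Before that, FP-Rh or HT-01 probe (50 μM stock) labelled for 30 min at 37 °C, following 30 min inhibitor preincubation. Mouse assays used brain membrane fraction or cell lysates, human used prefrontal cortex or cell membranes, all at 1.0 mg/mL protein.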

FAAH = FAAH (Mus musculus (Mouse), UniProt O08914); test: In vitro competitive activity-based protein profiling, FAAH (mouse); format: biochemical; conditions: 1 μM, read-out: FAAH % inh. 1 μM (mouse)
Outline: as §1

MAGL, sequence (O35678 whole entry): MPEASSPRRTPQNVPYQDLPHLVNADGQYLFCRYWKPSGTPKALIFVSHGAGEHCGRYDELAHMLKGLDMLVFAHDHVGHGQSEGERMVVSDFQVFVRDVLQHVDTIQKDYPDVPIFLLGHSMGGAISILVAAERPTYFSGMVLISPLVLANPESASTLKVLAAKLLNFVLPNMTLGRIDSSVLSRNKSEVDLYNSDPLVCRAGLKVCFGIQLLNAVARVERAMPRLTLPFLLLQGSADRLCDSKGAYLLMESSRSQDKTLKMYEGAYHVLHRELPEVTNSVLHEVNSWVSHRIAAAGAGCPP
FAAH, sequence (O08914 whole entry): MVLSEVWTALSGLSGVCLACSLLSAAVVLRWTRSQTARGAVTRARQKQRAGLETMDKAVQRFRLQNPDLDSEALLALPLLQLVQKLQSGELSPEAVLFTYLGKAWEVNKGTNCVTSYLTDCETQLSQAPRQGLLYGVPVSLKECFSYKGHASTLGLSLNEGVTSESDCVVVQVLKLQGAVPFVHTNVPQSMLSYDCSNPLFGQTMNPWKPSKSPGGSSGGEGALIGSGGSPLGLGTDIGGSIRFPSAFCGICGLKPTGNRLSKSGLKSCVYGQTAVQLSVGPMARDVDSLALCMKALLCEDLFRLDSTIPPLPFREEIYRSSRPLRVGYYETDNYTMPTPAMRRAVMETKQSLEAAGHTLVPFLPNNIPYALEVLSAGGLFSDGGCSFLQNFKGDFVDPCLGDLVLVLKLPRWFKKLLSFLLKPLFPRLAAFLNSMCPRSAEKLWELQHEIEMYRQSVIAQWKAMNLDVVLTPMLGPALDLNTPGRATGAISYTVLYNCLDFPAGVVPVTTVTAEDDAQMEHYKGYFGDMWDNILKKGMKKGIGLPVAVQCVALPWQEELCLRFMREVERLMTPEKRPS

Structure (SMILES)	inhibition at 1 µM (MAGL)	inhibition at 1 µM (FAAH)
CC(=O)N(C)c1cnn(C(=O)N2CC3CN(Cc4ccc(OC(C)C)cc4C(F)(F)F)CC3C2)c1 (stereo not shown) [Example 255, N-(1-(5-(4-isopropoxy-2-(trifluoromethyl)benzyl)octahydropyrrolo [3,4-c]pyrrole-2-carbonyl)-1H-pyrazol-4-yl)-N-methylacetamide]	≥ 75%	≥ 75%
CC(=O)N(C)c1cnn(C(=O)N2CC3CN(Cc4ccc(OCC(=O)N5CCCC5)cc4C(F)(F)F)CC3C2)c1 (stereo not shown) [Example 256, N-methyl-N-(1-(5-(4-(2-oxo-2-(pyrrolidin-1-yl)ethoxy)-2-(trifluoromethyl)benzyl)octahydropyrrolo [3,4-c]pyrrole-2-carbonyl)-1H-pyrazol-4-yl)acetamide]	0 to 25%	≥ 75%
CC(=O)N(C)c1cnn(C(=O)N2CC3CN(Cc4ccc(Oc5ccnnc5)cc4Cl)CC3C2)c1 (stereo not shown) [Example 257, N-(1-(5-(2-chloro-4-(pyridazin-4-yloxy)benzyl)octahydropyrrolo[3,4-c]pyrrole-2-carbonyl)-1H-pyrazol-4-yl)-N-methylacetamide]	50 to 75%	≥ 75%
CC(=O)N(C)c1cnn(C(=O)N2CC3CN(Cc4ccc(Oc5ccnnc5)cc4C(F)(F)F)CC3C2)c1 (stereo not shown) [Example 258, N-methyl-N-(1-(5-(4-(pyridazin-4-yloxy)-2-(trifluoromethyl)benzyl)octahydropyrrolo [3,4-c]pyrrole-2-carbonyl)-1H-pyrazol-4-yl)acetamide]	≥ 75%	≥ 75%
CC(=O)N(C)c1cnn(C(=O)N2CC3CN(Cc4ccc(-c5cncnc5)cc4Cl)CC3C2)c1 (stereo not shown) [Example 259, N-(1-(5-(2-chloro-4-(pyrimidin-5-yl)benzyl)octahydropyrrolo[3,4-c]pyrrole-2-carbonyl)-1H-pyrazol-4-yl)-N-methylacetamide]	≥ 75%	≥ 75%
CC(=O)N(C)c1cnn(C(=O)N2CC3CN(Cc4ccc(-c5cccnn5)cc4Cl)CC3C2)c1 (stereo not shown) [Example 260, N-(1-(5-(2-chloro-4-(pyridazin-3-yl)benzyl)octahydropyrrolo[3,4-c]pyrrole-2-carbonyl)-1H-pyrazol-4-yl)-N-methylacetamide]	≥ 75%	≥ 75%
CC(=O)N(C)c1cnn(C(=O)N2CC3CN(Cc4ccc(-c5ncccn5)cc4Cl)CC3C2)c1 (stereo not shown) [Example 261, N-(1-(5-(2-chloro-4-(pyrimidin-2-yl)benzyl)octahydropyrrolo[3,4-c]pyrrole-2-carbonyl)-1H-pyrazol-4-yl)-N-methylacetamide]	≥ 75%	≥ 75%
CC(=O)N(C)c1cnn(C(=O)N2CCC3(CCN(Cc4ccc(-c5cncnc5)cc4Cl)C3)C2)c1 (stereo not shown) [Example 262, N-(1-(7-(2-chloro-4-(pyrimidin-5-yl)benzyl)-2,7-diazaspiro[4.4]nonane-2-carbonyl)-1H-pyrazol-4-yl)-N-methylacetamide]	≥ 75%	≥ 75%
CC(=O)N(C)c1cnn(C(=O)N2CCC3(CCN(Cc4ccc(-c5cccnn5)cc4Cl)C3)C2)c1 (stereo not shown) [Example 263, N-(1-(7-(2-chloro-4-(pyridazin-3-yl)benzyl)-2,7-diazaspiro[4.4]nonane-2-carbonyl)-1H-pyrazol-4-yl)-N-methylacetamide]	≥ 75%	≥ 75%
CC(=O)N(C)c1cnn(C(=O)N2CCC3(CCN(Cc4ccc(-c5cnccn5)cc4Cl)C3)C2)c1 (stereo not shown) [Example 264, N-(1-(7-(2-chloro-4-(pyrazin-2-yl)benzyl)-2,7-diazaspiro[4.4]nonane-2-carbonyl)-1H-pyrazol-4-yl)-N-methylacetamide]	≥ 75%	≥ 75%
CC(=O)N(C)c1cnn(C(=O)N2CC3CN(Cc4ccc(Oc5cncnc5)cc4C(F)(F)F)CC3C2)c1 (stereo not shown) [Example 265, N-methyl-N-(1-(5-(4-(pyrimidin-5-yloxy)-2-(trifluoromethyl)benzyl)octahydropyrrolo [3,4-c]pyrrole-2-carbonyl)-1H-pyrazol-4-yl)acetamide]	≥ 75%	≥ 75%

Source: patent US10323038B2, “Pyrazole compounds and methods of making and using same” (ABIDE THERAPEUTICS, INC., priority 2015, dated 2019)
